Laboratory results: patent US20230065158A1, “OXABICYCLOHEPTANES FOR TREATMENT OF SMALL CELL LUNG CANCER” (Lixte Biotechnology, Inc., priority 2021, published 2023)

What was measured:
[1] = system: H69 cells; assay: Transendothelial extravasation assay through HUVEC monolayer, H69; type: cell-based; conditions: after 20 h of drug treatment
Description: FIGS. 3A-3H depict SCLC cell invasion through HUVEC monolayer. FIGS. 3A-3D: Graphical representation of H524/H69 cell ability to disrupt a confluent HUVEC monolayer using an electrical substrate-impedance sensing system. Arrows indicate time point when cells were added. Inserts show mean values and SD for each group after 20 h of drug treatment. After treatment, cell viability was counted using an Auto T4 Cell Counter (Nexcelom Cellometer). […] Whole cell Pt accumulation. Graphical representation of LB-100 effect on platinum uptake by SCLC cells. Cells were pretreated with LB-100 (H524—5 μM; H69—20 μM) overnight, then treated with carboplatin for one or four hours (H524—10 μM; H69—30 μM). Whole cell pellet was used for platinum (Pt) measurement. Values are normalized to total protein concentration. FIGS. 3E and 3F: Panels show mean values and SD of Pt accumulation for each group. […] Effect of LB-100 on PP2A expression and apoptosis regulatory proteins in H524 and H69 cells. […]
To discern the effect of LB100 on cell invasion, we tested the ability of SCLC cells to invade though a layer of endothelial cells (ECs). Toward this end, we measured the trans-endothelial monolayer resistance using an electrical substrate-impedance sensing system (Applied Biophysics, Troy, N.Y., USA), as previously described (24). […]

[2] = system: H524 cells; assay: Seahorse XF Real-Time ATP rate assay, H524; type: cell-based; conditions: LB100 2.5 μM, carboplatin 4 μM
Description: FIGS. 6A-6J depict ATP production rate in SCLC cells. FIG. 6A: H524 cells were treated with LB100 (2.5 μM), carboplatin (4 μM), or a combination, and ATP production rate was measured using the Agilent Seahorse XF Real Time ATP rate assay. mitoATP (mitochondrial) and glycoATP (glycolityc) rates were evaluated in H524 cells without and with drug treatments. […] FIG. 6B: Energetic map of H524 cells. After LB-100 and drug combination, cells became less glycolytic. FIGS. 6C-6E: The Agilent Seahorse XF pH sensor probe measures changes in the concentration of free protons, which corresponds to Extracellular Acidification Rate (ECAR). […] ATP level in cells was measured using the Agilent Seahorse XF Real Time ATP rate assay. […]
To elucidate the effect of the drugs on the glycolytic metabolism of H524 cells, we analyzed the proton efflux rate (PER). PER is calculated by subtracting acidification produced from mitochondrial CO2 production (Mitochondrial-derived CO2 can partially hydrate in the extracellular medium, resulting in additional extracellular acidification beyond that contributed by glycolysis) from total acidification or protons efflux (from both glycolysis and mitochondrial) into the extra cellular medium. […] To confirm that LB100 also affected glycolytic pathway in LB100-resistant cells, we measured PER in these cells. […]

[3] = system: H69 cells mouse xenograft; assay: Subcutaneous H69 cells mouse xenograft; type: in vivo, Athymic nude mice; conditions: for tumor weight compared to vehicle-treated group: end of experiment
Description: FIGS. 8A-8E depicts results of LB-100 activity alone and with carboplatin against H69 cells mouse xenograft. Tumor size (FIG. 8A) and body weights (FIG. 8B) were measured. Inhibition of tumor growth after LB-100 (*p<0.05), carboplatin (***p<0.001) and their combination (***p<0.001) were delivered via i.p. injections. P values show significant differences compared with vehicle group. FIG. 8C: Tumor images from vehicle and drug-treated groups. FIG. 8D: Tumor mass was measured at the end of experiment. […] FIG. 8E: Columns show total platinum (Pt) concentration in mouse tumors with carboplatin and LB-100/carboplatin treatments (n=3 as technical replicates) Pt mass was normalized to tumor total mass. Statistical analysis was performed using an ANOVA with Tukey post hoc-test (*p<0.05), carboplatin (**p<0.01).
Animal studies were performed according to an IACUC protocol approved by City of Hope National Medical Center Animal Care and Use Committee. Athymic nude mice (5-6 weeks of age) were purchased from NCI (Frederick, Md.). Mice were injected subcutaneously on their right flank with H69 cells suspended (2×106) in 100 μl of PBS and 100 μl of matrigel (BD Biosciences, San Jose, Calif.). Tumor growth was measured in two dimensions with caliper and when surface tumor was visible (45-50 mm2) mice were randomized in four groups as follow: vehicle (PBS, i.p. 3 times a week), LB100 (0.25 mg/kg, i.p. 3 times a week), carboplatin (50 mg/kg, i.p. 2 times a week) and drug combination (LB100/carboplatin i.p.) for 30 days. At the end of the study, the mice were euthanized by CO2 asphyxiation followed by cervical dislocation. Tumor tissues were excised, weighed, and subsequently fixed in 10% buffered formalin and embedded in paraffin for histological analysis.

[4] = system: H69 cells; assay: Seahorse XF Real-Time ATP rate assay, H69; type: cell-based; conditions: LB-100 10 μM, carboplatin 10 μM

| SMILES | % change of HUVEC barrier disruption (transmigration) [1] [%] | reduction of total ATP production rate compared to untreated cells [2] [%] | tumor weight compared to vehicle-treated group [3] | tumor size ([3]; i.p., 30 days) | drop of total ATP production rate [4] [%] |
| --- | --- | --- | --- | --- | --- |
| C[NH+]1CCN(C(=O)C2C(C(=O)O)[C@H]3CC[C@@H]2O3)CC1 (stereo in doubt) [LB-100, 3-[(4-Methylpiperazin-1-yl)carbonyl]-7-oxabicyclo[2.2.1]heptane-2-carboxylic acid] | 12.3 ± 0.92 | 73.7 | significant reduction in tumor weight | statistically significant reduction in tumor size | 54 |
| N.N.O=C([O-])C1(C(=O)[O-])CCC1.[Pt+2] [Carboplatin, reference compound] | 14.9 ± 1.24 | 36.3 | significant reduction in tumor weight |  | 12 |
